Experimental data reported in publication PMC6927813 (Science (New York, N.Y.), 2019).

Experiments:
[1] = target: T1, ParBP1 (Punavirus P1, UniProt Q38420); test: membrane-spotting assay, radiolabelled nucleotide; type: binding; conditions: labelled compound
T1 sequence (Q38420 1-333): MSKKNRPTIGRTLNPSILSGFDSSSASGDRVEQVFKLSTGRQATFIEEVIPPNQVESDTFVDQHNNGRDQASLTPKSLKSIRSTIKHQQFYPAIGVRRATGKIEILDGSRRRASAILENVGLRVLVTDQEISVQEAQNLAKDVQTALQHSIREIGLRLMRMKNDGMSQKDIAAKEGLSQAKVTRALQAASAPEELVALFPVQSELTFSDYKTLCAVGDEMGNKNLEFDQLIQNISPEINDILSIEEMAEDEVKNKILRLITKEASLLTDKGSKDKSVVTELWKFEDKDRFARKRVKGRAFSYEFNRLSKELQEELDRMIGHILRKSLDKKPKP

[2] = target: T2, ParBBsu (full-length) (Bacillus subtilis, UniProt P26497); test: isothermal titration calorimetry; type: binding
T2 sequence (P26497 1-282): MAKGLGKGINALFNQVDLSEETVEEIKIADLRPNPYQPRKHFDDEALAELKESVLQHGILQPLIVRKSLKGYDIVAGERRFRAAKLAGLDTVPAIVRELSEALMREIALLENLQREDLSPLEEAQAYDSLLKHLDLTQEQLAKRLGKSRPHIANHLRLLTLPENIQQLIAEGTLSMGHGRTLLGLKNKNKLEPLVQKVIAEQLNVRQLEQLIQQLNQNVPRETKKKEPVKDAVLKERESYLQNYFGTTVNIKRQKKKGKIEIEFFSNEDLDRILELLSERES

[3] = target: T3, ParBF (Escherichia coli, UniProt P62558); test: membrane-spotting assay, radiolabelled nucleotide; type: binding; conditions: labelled compound
T3 sequence (P62558 1-323): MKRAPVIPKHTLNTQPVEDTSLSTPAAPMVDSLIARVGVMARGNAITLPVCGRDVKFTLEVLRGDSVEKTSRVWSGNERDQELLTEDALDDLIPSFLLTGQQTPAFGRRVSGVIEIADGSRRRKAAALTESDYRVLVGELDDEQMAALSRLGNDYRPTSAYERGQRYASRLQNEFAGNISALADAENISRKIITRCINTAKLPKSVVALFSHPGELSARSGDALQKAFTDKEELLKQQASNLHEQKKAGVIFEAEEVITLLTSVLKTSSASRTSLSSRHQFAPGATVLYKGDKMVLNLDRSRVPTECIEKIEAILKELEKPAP

[4] = target: the molecule itself; test: crystal structure
[5] = target: the molecule itself; test: cross-linking

Question: What does the source list for `Nc1ccn([C@@H]2O[C@H](COP(=O)(O)OP(=O)(O)OP(=O)(O)O)[C@@H](O)[C@H]2O)c(=O)n1` [CTP]?
Answer: membrane-spotting assay, radiolabelled nucleotide [1]: plasmid-encoded ParB proteins (F plasmid ParBF and P1 prophage ParBP1); Kd [2]: 10 to 50 µM; membrane-spotting assay, radiolabelled nucleotide [3]: CTP was also bound by plasmid-encoded ParB proteins (F plasmid ParBF

B1: ParBBsu(21-218) (domain or fragment)
chain: ETVEEIKIADLRPNPYQPRKHFDDEALAELKESVLQHGILQPLIVRKSLKGYDIVAGERRFRAAKLAGLDTVPAIVRELSEALMREIALLENLQREDLSPLEEAQAYDSLLKHLDLTQEQLAKRLGKSRPHIANHLRLLTLPENIQQLIAEGTLSMGHGRTLLGLKNKNKLEPLVQKVIAEQLNVRQLEQLIQQLNQN
Question: Does B1 bind [4]?
Answer: Result: binds

B2: ParBBsu(T22C) (natural protein)
chain: MAKGLGKGINALFNQVDLSEECVEEIKIADLRPNPYQPRKHFDDEALAELKESVLQHGILQPLIVRKSLKGYDIVAGERRFRAAKLAGLDTVPAIVRELSEALMREIALLENLQREDLSPLEEAQAYDSLLKHLDLTQEQLAKRLGKSRPHIANHLRLLTLPENIQQLIAEGTLSMGHGRTLLGLKNKNKLEPLVQKVIAEQLNVRQLEQLIQQLNQNVPRETKKKEPVKDAVLKERESYLQNYFGTTVNIKRQKKKGKIEIEFFSNEDLDRILELLSERES
Question: Does B2 bind [5]?
Answer: Result: binds

B3: ParBBsu(T22C, S278C) (natural protein)
chain: MAKGLGKGINALFNQVDLSEECVEEIKIADLRPNPYQPRKHFDDEALAELKESVLQHGILQPLIVRKSLKGYDIVAGERRFRAAKLAGLDTVPAIVRELSEALMREIALLENLQREDLSPLEEAQAYDSLLKHLDLTQEQLAKRLGKSRPHIANHLRLLTLPENIQQLIAEGTLSMGHGRTLLGLKNKNKLEPLVQKVIAEQLNVRQLEQLIQQLNQNVPRETKKKEPVKDAVLKERESYLQNYFGTTVNIKRQKKKGKIEIEFFSNEDLDRILELLCERES
Question: Which “stoichiometry N” value [5] does the source give for B3 here?
Answer: The value was 2.
